In PubChem BioAssay AID1745844 (Carcinogenic Potency Database (CPDB), 2022):
Values joined by “and” are separate entries in the source; they are usually repeats but may differ in a detail not shown here. Identical values can stand only once. Active and inactive are the calls of the source. The rule behind the calls is not given here.

Tested on: rodent lifetime carcinogenesis bioassay, tumor incidence TD50
Experiment: carcinogenic potency in animals, long-term in vivo studies, CPDB compilation (AID 1745844)
Details: in feed

Cc1ccc(N)cc1N
TD50 (mouse, strain B6C3F1, females, site: all sites, lesion: leukemia + lymphoma, dosed 101 weeks, study length 101 weeks): 10.6 mg/kg/day
TD50 (mouse, strain B6C3F1, females, site: any site (literature study), lesion: several types, types named in the paper, dosed 101 weeks, study length 101 weeks): 8.64 mg/kg/day
TD50 (mouse, strain B6C3F1, females, site: liver, lesion: hepatocellular adenoma + hepatocellular carcinoma + neoplastic nodule, dosed 101 weeks, study length 101 weeks): 26.7 mg/kg/day
TD50 (mouse, strain B6C3F1, females, site: liver, lesion: hepatocellular carcinoma, dosed 101 weeks, study length 101 weeks): 26.7 mg/kg/day
TD50 (mouse, strain B6C3F1, males, site: any site (literature study), lesion: several types, types named in the paper, dosed 101 weeks, study length 101 weeks): 105 mg/kg/day
TD50 (mouse, strain B6C3F1, males, site: lung, lesion: alveolar/bronchiolar adenoma + alveolar/bronchiolar carcinoma, dosed 101 weeks, study length 101 weeks): 35.8 mg/kg/day
TD50 (mouse, strain B6C3F1, males, site: lung, lesion: alveolar/bronchiolar carcinoma, dosed 101 weeks, study length 101 weeks): 35.8 mg/kg/day (inactive)
TD50 (mouse, strain CD-1 HaM/ICR, females, site: any site (literature study), lesion: several types, types named in the paper, dosed 77 weeks, study length 90 weeks): 100 mg/kg/day
TD50 (mouse, strain CD-1 HaM/ICR, females, site: liver, lesion: hepatoma, dosed 77 weeks, study length 90 weeks): 206 mg/kg/day
TD50 (mouse, strain CD-1 HaM/ICR, females, site: liver, lesion: several types, types named in the paper, dosed 77 weeks, study length 90 weeks): 180 mg/kg/day
TD50 (mouse, strain CD-1 HaM/ICR, females, site: lung, lesion: several types, types named in the paper, dosed 77 weeks, study length 90 weeks): 72 mg/kg/day (inactive)
TD50 (mouse, strain CD-1 HaM/ICR, males, site: all sites, lesion: all vascular tumors, dosed 77 weeks, study length 90 weeks): 317 mg/kg/day
TD50 (mouse, strain CD-1 HaM/ICR, males, site: liver, lesion: hepatoma, dosed 77 weeks, study length 90 weeks): 201 mg/kg/day
TD50 (mouse, strain CD-1 HaM/ICR, males, site: liver, lesion: several types, types named in the paper, dosed 77 weeks, study length 90 weeks): 191 mg/kg/day
carcinogen call (mouse, strain CD-1 HaM/ICR, males, site: lung, lesion: several types, types named in the paper, dosed 77 weeks, study length 90 weeks): negative (inactive)
TD50 (rat, strain Charles River CD (Sprague-Dawley), males, site: any site (literature study), lesion: several types, types named in the paper, dosed 64 weeks, study length 73 weeks): 2.98 mg/kg/day
TD50 (rat, strain Charles River CD (Sprague-Dawley), males, site: liver, lesion: hepatoma, dosed 64 weeks, study length 73 weeks): 22.2 mg/kg/day
TD50 (rat, strain Charles River CD (Sprague-Dawley), males, site: liver, lesion: several types, types named in the paper, dosed 64 weeks, study length 73 weeks): 26.2 mg/kg/day
TD50 (rat, strain Charles River CD (Sprague-Dawley), males, site: subcutaneous tissue, lesion: fibroma, dosed 64 weeks, study length 73 weeks): 5.42 mg/kg/day and 4.42 mg/kg/day
TD50 (rat, strain Fischer 344, females, site: any site (literature study), lesion: several types, types named in the paper, dosed 93 weeks, study length 103 weeks): 1.46 mg/kg/day
TD50 (rat, strain Fischer 344, females, site: liver + mammary gland, lesion: hepatocellular carcinoma + neoplastic nodule + adenoma + carcinoma, dosed 93 weeks, study length 103 weeks): 1.43 mg/kg/day
TD50 (rat, strain Fischer 344, females, site: liver, lesion: hepatocellular adenoma + hepatocellular carcinoma + neoplastic nodule, dosed 93 weeks, study length 103 weeks): 58 mg/kg/day
TD50 (rat, strain Fischer 344, females, site: liver, lesion: hepatocellular carcinoma + neoplastic nodule, dosed 93 weeks, study length 103 weeks): 58 mg/kg/day
TD50 (rat, strain Fischer 344, females, site: mammary gland, lesion: adenoma + carcinoma, dosed 93 weeks, study length 103 weeks): 5.54 mg/kg/day
TD50 (rat, strain Fischer 344, females, site: mammary gland, lesion: adenoma, dosed 93 weeks, study length 103 weeks): 1.46 mg/kg/day
TD50 (rat, strain Fischer 344, females, site: mammary gland, lesion: carcinoma, dosed 93 weeks, study length 103 weeks): 8.98 mg/kg/day
TD50 (rat, strain Fischer 344, females, site: subcutaneous tissue, lesion: fibroma, dosed 93 weeks, study length 103 weeks): 16.4 mg/kg/day
TD50 (rat, strain Fischer 344, males, site: all sites, lesion: mesothelioma, dosed 91 weeks, study length 103 weeks): 6.81 mg/kg/day
TD50 (rat, strain Fischer 344, males, site: any site (literature study), lesion: several types, types named in the paper, dosed 91 weeks, study length 103 weeks): 0.991 mg/kg/day
TD50 (rat, strain Fischer 344, males, site: liver, lesion: hepatocellular adenoma + hepatocellular carcinoma + neoplastic nodule, dosed 91 weeks, study length 103 weeks): 8.11 mg/kg/day
TD50 (rat, strain Fischer 344, males, site: liver, lesion: hepatocellular carcinoma + neoplastic nodule, dosed 91 weeks, study length 103 weeks): 8.11 mg/kg/day
TD50 (rat, strain Fischer 344, males, site: subcutaneous tissue, lesion: fibroma, dosed 91 weeks, study length 103 weeks): 2.52 mg/kg/day
TD50 (rat, strain Fischer 344, males, site: subcutaneous tissue, lesion: lipoma, dosed 91 weeks, study length 103 weeks): 13.2 mg/kg/day

CCOC(=O)/C(Cl)=N/Nc1ccccc1
TD50 (mouse, strain B6C3F1, females, site: pituitary gland, lesion: adenoma, NOS, dosed 103 weeks, study length 104 weeks): 20200 mg/kg/day (inactive)
TD50 (mouse, strain B6C3F1, females, site: uterus, lesion: endometrial stromal polyp, dosed 103 weeks, study length 104 weeks): 86500 mg/kg/day
TD50 (mouse, strain B6C3F1, males, site: lung, lesion: alveolar/bronchiolar adenoma, dosed 103 weeks, study length 104 weeks): 7160 mg/kg/day (inactive)
TD50 (rat, strain Fischer 344, females, site: adrenal gland, lesion: cortical adenoma, dosed 103 weeks, study length 105 weeks): 11900 mg/kg/day (inactive)
TD50 (rat, strain Fischer 344, females, site: any site (literature study), lesion: several types, types named in the paper, dosed 103 weeks, study length 105 weeks): 29500 mg/kg/day
carcinogen call (rat, strain Fischer 344, males, site: any site (literature study), lesion: several types, types named in the paper, dosed 103 weeks, study length 105 weeks): negative (inactive)
TD50 (rat, strain Fischer 344, males, site: liver, lesion: hepatocellular adenoma + hepatocellular carcinoma + neoplastic nodule, dosed 103 weeks, study length 105 weeks): 516000 mg/kg/day
